Assay results published in patent US9833497B2, “Human originated EGF domain proteins and use of the same” (CHENGDU SOURCEBIO LIMITED-LIABILITY COMPANY, priority 2013, dated 2017).

Experiments:
Assay type in all cases: cell-based
E. coli DH5α = test: Antibacterial activity: MIC and growth curve against E. coli DH5α in 96-well plate; conditions: minimal inhibitory concentration against E. coli DH5α; 96-well plate, 5×10^5 CFU/mL, 37° C., judged after 8 h
Method in brief: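 Log-phase bacteria (OD600 ~0.5) resuspended in LB at 5×10^5 CFU/mL, exposed to recombinant protein at 50, 25, 12.5 μg/mL final in triplicate, 37 °C shaking at 175 rpm. OD600 read every 30 min; MIC is lowest concentration showing no growth.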

E. coli BL21 = test: MIC against Gram-negative bacteria: E. coli BL21
Method in brief: (§1)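 Two-fold serial dilutions of each purified human EGF domain protein, three replicate wells per level, were combined with bacteria at a final 5×10^5 CFU/mL in LB. Cultures were shaken at 175 rpm, 37° C. The MIC was taken as the minimum concentration preventing growth.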

Pseudomonas aeruginosa = test: MIC against Gram-negative bacteria: Pseudomonas aeruginosa
Method in brief: as §1

Klebsiella pneumonia = test: MIC against Gram-negative bacteria: Klebsiella pneumonia
Method in brief: as §1

Enterobacter cloacae = test: MIC against Gram-negative bacteria: Enterobacter cloacae
Method in brief: as §1

Aeromonas hydrophila = test: MIC against Gram-negative bacteria: Aeromonas hydrophila
Method in brief: as §1

Citrobacter diversus = test: MIC against Gram-negative bacteria: Citrobacter diversus
Method in brief: as §1

Moraxella catarrhalis = test: MIC against Gram-negative bacteria: Moraxella catarrhalis
Method in brief: as §1

Proteus mirabilis = test: MIC against Gram-negative bacteria: Proteus mirabilis
Method in brief: as §1

Proteus vulgaris = test: MIC against Gram-negative bacteria: Proteus vulgaris
Method in brief: as §1

Serratia marcescens = test: MIC against Gram-negative bacteria: Serratia marcescens
Method in brief: as §1

[1] = 10 h cultivation at 37° C., 5×10^5 CFU/mL, two-fold serial dilution
[2] = 96-well plate, 5×10^5 CFU/mL, 37° C., 10 h
[3] = E. coli BL21, 10 h cultivation at 37° C.
[4] = P. aeruginosa, 10 h cultivation at 37° C.
[5] = K. pneumonia, 10 h cultivation at 37° C.
[6] = E. cloacae, 10 h cultivation at 37° C.
[7] = A. hydrophila, 10 h cultivation at 37° C.
[8] = C. diversus, 10 h cultivation at 37° C.
[9] = M. catarrhalis, 10 h cultivation at 37° C.
[10] = P. mirabilis, 10 h cultivation at 37° C.
[11] = P. vulgaris, 10 h cultivation at 37° C.
[12] = S. marcescens, 10 h cultivation at 37° C.

Question: How did the MIC (E. coli DH5α) turn out when “PRT1365 (SQLRCPNDCHSRGRCVEGKCVCEQGFKGYDCS; listed as Homo sapiens)” was run?
Answer: Its MIC is 12.5 µg/mL.

Question: And the “MIC against E. coli BL21” value (E. coli BL21; E. coli BL21, 5×10^5 CFU/mL, 10 h cultivation at 37° C.)?
Answer: Its value is 100 µg/mL.

Question: And the “MIC against P. aeruginosa” value (Pseudomonas aeruginosa; Pseudomonas aeruginosa, 5×10^5 CFU/mL, 10 h cultivation at 37° C.)?
Answer: Its value is 25 µg/mL.

Question: And the “MIC against K. pneumonia” value (Klebsiella pneumonia; Klebsiella pneumonia, 5×10^5 CFU/mL, 10 h cultivation at 37° C.)?
Answer: Its value is 50 µg/mL.

Question: And the “MIC against E. cloacae” value (Enterobacter cloacae; Enterobacter cloacae, 5×10^5 CFU/mL, 10 h cultivation at 37° C.)?
Answer: The value was 25 µg/mL.

Question: What about the “MIC against A. hydrophila” value (Aeromonas hydrophila; Aeromonas hydrophila, 5×10^5 CFU/mL, 10 h cultivation at 37° C.) of the same substance?
Answer: The value was 12.5 µg/mL.

Question: What about the “MIC against C. diversus” value (Citrobacter diversus; Citrobacter diversus, 5×10^5 CFU/mL, 10 h cultivation at 37° C.) of the same substance?
Answer: Its value is 50 µg/mL.

Question: What about the “MIC against M. catarrhalis” value (Moraxella catarrhalis; Moraxella catarrhalis, 5×10^5 CFU/mL, 10 h cultivation at 37° C.) of the same substance?
Answer: The value was 25 µg/mL.

Question: And the “MIC against P. mirabilis” value (Proteus mirabilis; Proteus mirabilis, 5×10^5 CFU/mL, 10 h cultivation at 37° C.)?
Answer: The value was 12.5 µg/mL.

Question: What about the “MIC against P. vulgaris” value (Proteus vulgaris; Proteus vulgaris, 5×10^5 CFU/mL, 10 h cultivation at 37° C.) of the same substance?
Answer: The value was 25 µg/mL.

Question: What about the “MIC against S. marcescens” value (Serratia marcescens; Serratia marcescens, 5×10^5 CFU/mL, 10 h cultivation at 37° C.) of the same substance?
Answer: Its value is 12.5 µg/mL.

Question: How did the MIC (E. coli DH5α) turn out when “PRT226 (DIDECESGAHQCSEAQTCVNFHGGYRCVDTNRCVEPYIQVSENRCL; listed as Homo sapiens)” was run?
Answer: Its MIC is 50 µg/mL.

Question: What about the “MIC (μg/mL) E. coli BL21” value (E. coli BL21; E. coli BL21, 10 h cultivation at 37° C., 5×10^5 CFU/mL) of the same substance?
Answer: The value was 25 µg/mL.

Question: What about the “MIC (μg/mL) P. aeruginosa” value (Pseudomonas aeruginosa; P. aeruginosa, 10 h cultivation at 37° C., 5×10^5 CFU/mL) of the same substance?
Answer: Its value is 12.5 µg/mL.

Question: What about the “MIC (μg/mL) K. pneumonia” value (Klebsiella pneumonia; K. pneumonia, 10 h cultivation at 37° C., 5×10^5 CFU/mL) of the same substance?
Answer: The value was 25 µg/mL.

Question: And the “MIC (μg/mL) E. cloacae” value (Enterobacter cloacae; E. cloacae, 10 h cultivation at 37° C., 5×10^5 CFU/mL)?
Answer: The value was 50 µg/mL.

Question: What about the “MIC (μg/mL) A. hydrophila” value (Aeromonas hydrophila; A. hydrophila, 10 h cultivation at 37° C., 5×10^5 CFU/mL) of the same substance?
Answer: Its value is 12.5 µg/mL.

Question: And the “MIC (μg/mL) C. diversus” value (Citrobacter diversus; C. diversus, 10 h cultivation at 37° C., 5×10^5 CFU/mL)?
Answer: The value was 50 µg/mL.

Question: What about the “MIC (μg/mL) M. catarrhalis” value (Moraxella catarrhalis; M. catarrhalis, 10 h cultivation at 37° C., 5×10^5 CFU/mL) of the same substance?
Answer: The value was 12.5 µg/mL.

Question: What about the “MIC (μg/mL) P. mirabilis” value (Proteus mirabilis; P. mirabilis, 10 h cultivation at 37° C., 5×10^5 CFU/mL) of the same substance?
Answer: The value was 12.5 µg/mL.

Question: What about the “MIC (μg/mL) P. vulgaris” value (Proteus vulgaris; P. vulgaris, 10 h cultivation at 37° C., 5×10^5 CFU/mL) of the same substance?
Answer: Its value is 12.5 µg/mL.

Question: And the “MIC (μg/mL) S. marcescens” value (Serratia marcescens; S. marcescens, 10 h cultivation at 37° C., 5×10^5 CFU/mL)?
Answer: The value was 12.5 µg/mL.

Question: What does the source list for “PRT1175 (AEHACLSDPCHNRGSCKETSLGFECECSPGWTGPTCS; listed as Homo sapiens)”?
Answer: MIC (E. coli DH5α): 12.5 µg/mL; MIC E. coli BL21 (E. coli BL21; [1]): 25 µg/mL; MIC P. aeruginosa (Pseudomonas aeruginosa; [1]): 50 µg/mL; MIC K. pneumonia (Klebsiella pneumonia; [1]): 25 µg/mL; MIC E. cloacae (Enterobacter cloacae; [1]): 12.5 µg/mL; MIC A. hydrophila (Aeromonas hydrophila; [1]): 50 µg/mL; MIC C. diversus (Citrobacter diversus; [1]): 25 µg/mL; MIC M. catarrhalis (Moraxella catarrhalis; [1]): 12.5 µg/mL; MIC P. mirabilis (Proteus mirabilis; [1]): 25 µg/mL; MIC P. vulgaris (Proteus vulgaris; [1]): 50 µg/mL; MIC S. marcescens (Serratia marcescens; [1]): 25 µg/mL

Question: What does the source list for “PRT706 (EVNHCSNYCQNGGTCVPSVLGRPTCSCALGFTGPNCG; listed as Homo sapiens)”?
Answer: MIC (E. coli DH5α): 25 µg/mL; MIC E. coli BL21 (E. coli BL21; [2]): 50 µg/mL; MIC P. aeruginosa (Pseudomonas aeruginosa; [2]): 12.5 µg/mL; MIC K. pneumonia (Klebsiella pneumonia; [2]): 12.5 µg/mL; MIC E. cloacae (Enterobacter cloacae; [2]): 25 µg/mL; MIC A. hydrophila (Aeromonas hydrophila; [2]): 50 µg/mL; MIC C. diversus (Citrobacter diversus; [2]): 12.5 µg/mL; MIC M. catarrhalis (Moraxella catarrhalis; [2]): 50 µg/mL; MIC P. mirabilis (Proteus mirabilis; [2]): 12.5 µg/mL; MIC P. vulgaris (Proteus vulgaris; [2]): 50 µg/mL; MIC S. marcescens (Serratia marcescens; [2]): 12.5 µg/mL

Question: Which MIC (E. coli DH5α) does the source give for “PRT946 (EVDECQNQPCQNGGTCIDLVNHFKCSCPPGTRGLLCE; listed as Homo sapiens)” here?
Answer: Its MIC is 50 µg/mL.

Question: And the MIC (E. coli BL21; [3])?
Answer: The MIC was 12.5 µg/mL.

Question: What about the MIC (Pseudomonas aeruginosa; [4]) of the same substance?
Answer: Its MIC is 50 µg/mL.

Question: And the MIC (Klebsiella pneumonia; [5])?
Answer: The MIC was 12.5 µg/mL.

Question: What about the MIC (Enterobacter cloacae; [6]) of the same substance?
Answer: The MIC was 50 µg/mL.

Question: And the MIC (Aeromonas hydrophila; [7])?
Answer: The MIC was 25 µg/mL.

Question: What about the MIC (Citrobacter diversus; [8]) of the same substance?
Answer: The MIC was 12.5 µg/mL.

Question: And the MIC (Moraxella catarrhalis; [9])?
Answer: The MIC was 50 µg/mL.

Question: And the MIC (Proteus mirabilis; [10])?
Answer: Its MIC is 25 µg/mL.

Question: And the MIC (Proteus vulgaris; [11])?
Answer: Its MIC is 12.5 µg/mL.

Question: And the MIC (Serratia marcescens; [12])?
Answer: The MIC was 50 µg/mL.

Question: Which results are given for “PRT994 (DHNECLSQPCHPGSTCLDLLATFHCLCPPGLEGQLCE; listed as Homo sapiens)”?
Answer: MIC (E. coli DH5α): 50 µg/mL; MIC (E. coli BL21; [3]): 12.5 µg/mL; MIC (Pseudomonas aeruginosa; [4]): 25 µg/mL; MIC (Klebsiella pneumonia; [5]): 50 µg/mL; MIC (Enterobacter cloacae; [6]): 25 µg/mL; MIC (Aeromonas hydrophila; [7]): 12.5 µg/mL; MIC (Citrobacter diversus; [8]): 50 µg/mL; MIC (Moraxella catarrhalis; [9]): 12.5 µg/mL; MIC (Proteus mirabilis; [10]): 25 µg/mL; MIC (Proteus vulgaris; [11]): 50 µg/mL; MIC (Serratia marcescens; [12]): 25 µg/mL

Question: What does the source list for “PRT1109 (EPRGCATQPCHHGALCVPQGPDPTGFRCYCVPGFQGPRCE; listed as Homo sapiens)”?
Answer: MIC (E. coli DH5α): 12.5 µg/mL; MIC E. coli BL21 (E. coli BL21; [1]): 25 µg/mL; MIC P. aeruginosa (Pseudomonas aeruginosa; [1]): 12.5 µg/mL; MIC K. pneumonia (Klebsiella pneumonia; [1]): 25 µg/mL; MIC E. cloacae (Enterobacter cloacae; [1]): 12.5 µg/mL; MIC A. hydrophila (Aeromonas hydrophila; [1]): 50 µg/mL; MIC C. diversus (Citrobacter diversus; [1]): 12.5 µg/mL; MIC M. catarrhalis (Moraxella catarrhalis; [1]): 25 µg/mL; MIC P. mirabilis (Proteus mirabilis; [1]): 50 µg/mL; MIC P. vulgaris (Proteus vulgaris; [1]): 25 µg/mL; MIC S. marcescens (Serratia marcescens; [1]): 12.5 µg/mL
